Assay results taken from ChEMBL document CHEMBL5465560, “Selectivity Literature for EUbOPEN Chemogenomic Library” (2024).
Blank lines part the entries; values can stand above or below the molecule they belong to.

Assays:
[1] = biological target: Ephrin type-A receptor 2 (Homo sapiens) (UniProt P29317); test: Selectivity interaction (Kinase panel (DSF assay)) EUB0001559a EPHA2
[2] = biological target: Receptor-interacting serine/threonine-protein kinase 2 (Homo sapiens, UniProt O43353); test: Selectivity interaction (KinomeScan (DiscoverX)) EUB0000607a RIPK2; settings: at 10 µM
[3] = biological target: T1, Cyclin-G-associated kinase (Homo sapiens) (UniProt O14976); test: Selectivity interaction (KinomeScan (DiscoverX)) EUB0000595a GAK; settings: at 10 µM
T1 sequence (whole entry): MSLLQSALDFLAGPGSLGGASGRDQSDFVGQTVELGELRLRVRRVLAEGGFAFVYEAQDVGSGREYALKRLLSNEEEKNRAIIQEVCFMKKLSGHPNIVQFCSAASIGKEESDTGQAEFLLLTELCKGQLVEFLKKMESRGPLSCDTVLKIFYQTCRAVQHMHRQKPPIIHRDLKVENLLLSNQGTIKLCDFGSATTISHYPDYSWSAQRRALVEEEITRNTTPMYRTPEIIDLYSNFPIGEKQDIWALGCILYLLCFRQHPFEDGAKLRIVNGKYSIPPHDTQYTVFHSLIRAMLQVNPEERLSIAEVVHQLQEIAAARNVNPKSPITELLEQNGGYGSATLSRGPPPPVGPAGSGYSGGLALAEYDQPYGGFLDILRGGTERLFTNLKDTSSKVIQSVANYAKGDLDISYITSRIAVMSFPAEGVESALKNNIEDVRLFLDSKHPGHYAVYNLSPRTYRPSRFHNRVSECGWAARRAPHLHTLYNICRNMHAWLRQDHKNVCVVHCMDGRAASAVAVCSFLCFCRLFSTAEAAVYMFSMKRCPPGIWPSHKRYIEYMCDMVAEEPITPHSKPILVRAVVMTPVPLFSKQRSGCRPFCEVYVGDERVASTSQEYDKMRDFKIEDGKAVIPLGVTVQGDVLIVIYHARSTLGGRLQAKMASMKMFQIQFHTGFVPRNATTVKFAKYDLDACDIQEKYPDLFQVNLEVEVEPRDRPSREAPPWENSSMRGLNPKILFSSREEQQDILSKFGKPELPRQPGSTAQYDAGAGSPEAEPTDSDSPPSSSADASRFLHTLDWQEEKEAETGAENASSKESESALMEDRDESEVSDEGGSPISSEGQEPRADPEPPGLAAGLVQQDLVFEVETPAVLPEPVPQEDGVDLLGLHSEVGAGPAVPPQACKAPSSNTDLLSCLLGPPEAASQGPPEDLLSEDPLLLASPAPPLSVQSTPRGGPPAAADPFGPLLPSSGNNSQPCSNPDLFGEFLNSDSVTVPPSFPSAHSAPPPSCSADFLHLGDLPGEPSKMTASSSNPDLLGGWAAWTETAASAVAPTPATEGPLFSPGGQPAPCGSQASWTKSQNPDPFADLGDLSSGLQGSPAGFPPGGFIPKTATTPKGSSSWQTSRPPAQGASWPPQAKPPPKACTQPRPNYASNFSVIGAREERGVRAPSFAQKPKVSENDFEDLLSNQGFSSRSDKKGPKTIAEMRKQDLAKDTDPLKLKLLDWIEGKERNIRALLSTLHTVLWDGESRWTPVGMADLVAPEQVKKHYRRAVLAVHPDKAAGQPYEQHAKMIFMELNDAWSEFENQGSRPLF

[4] = biological target: T2, Discoidin domain-containing receptor 2 (Homo sapiens) (UniProt Q16832); test: Selectivity interaction (Upstate Kinase Profiler service (Millipore)) EUB0000056c DDR2; settings: at 1 µM
T2 sequence (whole entry): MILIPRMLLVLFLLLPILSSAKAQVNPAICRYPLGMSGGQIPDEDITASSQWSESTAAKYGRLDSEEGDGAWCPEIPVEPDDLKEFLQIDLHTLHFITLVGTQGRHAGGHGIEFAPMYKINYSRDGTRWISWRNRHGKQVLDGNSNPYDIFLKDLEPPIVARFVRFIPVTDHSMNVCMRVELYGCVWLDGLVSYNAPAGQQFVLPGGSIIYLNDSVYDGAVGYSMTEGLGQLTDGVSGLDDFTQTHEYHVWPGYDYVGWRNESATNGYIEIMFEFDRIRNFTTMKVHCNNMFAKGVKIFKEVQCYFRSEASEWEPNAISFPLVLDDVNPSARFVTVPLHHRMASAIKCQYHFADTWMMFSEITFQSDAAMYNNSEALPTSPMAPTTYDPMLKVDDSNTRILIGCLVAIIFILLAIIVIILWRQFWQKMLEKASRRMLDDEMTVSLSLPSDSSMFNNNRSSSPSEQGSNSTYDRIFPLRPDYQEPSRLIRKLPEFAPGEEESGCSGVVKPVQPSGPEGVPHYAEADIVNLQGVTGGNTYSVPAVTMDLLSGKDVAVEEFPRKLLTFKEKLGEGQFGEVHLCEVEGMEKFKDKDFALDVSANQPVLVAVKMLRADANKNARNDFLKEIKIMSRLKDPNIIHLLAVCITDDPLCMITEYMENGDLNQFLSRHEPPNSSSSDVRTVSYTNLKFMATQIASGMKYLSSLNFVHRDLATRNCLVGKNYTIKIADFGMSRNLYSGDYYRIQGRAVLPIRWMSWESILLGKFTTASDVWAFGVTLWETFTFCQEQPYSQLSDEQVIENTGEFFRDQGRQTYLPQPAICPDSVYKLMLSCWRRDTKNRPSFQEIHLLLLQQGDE

Insulin receptor = Insulin receptor (Homo sapiens, UniProt P06213); test: Selectivity interaction (ActivX KiNativ screen (kinase selectivity in THP-1 cell lysates)) EUB0000639a INSR; assay type: subcellular; settings: lysate
[5] = biological target: T3, Tyrosine-protein kinase TXK (Homo sapiens) (UniProt P42681); test: Selectivity interaction (KinomeScan (DiscoverX)) EUB0000666a TXK; settings: at 10 µM
T3 sequence (whole entry): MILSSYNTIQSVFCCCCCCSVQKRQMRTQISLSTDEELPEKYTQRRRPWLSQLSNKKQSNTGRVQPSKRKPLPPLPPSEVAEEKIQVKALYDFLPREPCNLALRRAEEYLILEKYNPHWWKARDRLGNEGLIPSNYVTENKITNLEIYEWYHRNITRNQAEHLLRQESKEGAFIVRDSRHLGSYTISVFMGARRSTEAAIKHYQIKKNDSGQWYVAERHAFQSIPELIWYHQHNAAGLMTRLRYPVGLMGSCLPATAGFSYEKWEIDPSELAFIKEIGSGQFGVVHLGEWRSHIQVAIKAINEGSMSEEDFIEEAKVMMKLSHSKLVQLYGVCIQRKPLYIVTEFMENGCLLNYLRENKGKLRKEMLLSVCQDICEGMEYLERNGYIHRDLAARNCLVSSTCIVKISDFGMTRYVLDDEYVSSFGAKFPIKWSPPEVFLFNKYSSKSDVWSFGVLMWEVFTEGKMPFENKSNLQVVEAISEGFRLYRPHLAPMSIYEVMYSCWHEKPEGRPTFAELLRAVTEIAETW

Insulin receptor, sequence (P06213 28-758 limits assumed): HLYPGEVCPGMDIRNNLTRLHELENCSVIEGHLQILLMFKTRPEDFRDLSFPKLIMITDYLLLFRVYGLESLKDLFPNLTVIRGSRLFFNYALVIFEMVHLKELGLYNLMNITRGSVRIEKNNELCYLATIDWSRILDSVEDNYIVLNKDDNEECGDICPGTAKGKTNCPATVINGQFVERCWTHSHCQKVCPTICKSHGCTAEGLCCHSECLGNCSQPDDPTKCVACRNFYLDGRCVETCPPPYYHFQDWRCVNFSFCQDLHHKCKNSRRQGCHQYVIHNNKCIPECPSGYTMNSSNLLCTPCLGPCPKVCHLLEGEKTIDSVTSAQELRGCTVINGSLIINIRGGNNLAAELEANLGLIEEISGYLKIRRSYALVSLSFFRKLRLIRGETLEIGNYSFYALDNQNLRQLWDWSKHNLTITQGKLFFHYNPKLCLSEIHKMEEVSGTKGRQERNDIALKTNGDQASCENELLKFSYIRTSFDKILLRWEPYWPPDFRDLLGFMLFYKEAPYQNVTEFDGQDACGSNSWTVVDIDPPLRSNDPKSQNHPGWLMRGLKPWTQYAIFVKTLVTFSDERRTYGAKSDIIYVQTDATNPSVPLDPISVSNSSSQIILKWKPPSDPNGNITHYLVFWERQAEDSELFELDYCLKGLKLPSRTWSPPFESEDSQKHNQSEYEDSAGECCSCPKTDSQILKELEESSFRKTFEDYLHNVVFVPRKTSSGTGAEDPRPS
Insulin receptor, sequence (P06213 763-1382 limits assumed): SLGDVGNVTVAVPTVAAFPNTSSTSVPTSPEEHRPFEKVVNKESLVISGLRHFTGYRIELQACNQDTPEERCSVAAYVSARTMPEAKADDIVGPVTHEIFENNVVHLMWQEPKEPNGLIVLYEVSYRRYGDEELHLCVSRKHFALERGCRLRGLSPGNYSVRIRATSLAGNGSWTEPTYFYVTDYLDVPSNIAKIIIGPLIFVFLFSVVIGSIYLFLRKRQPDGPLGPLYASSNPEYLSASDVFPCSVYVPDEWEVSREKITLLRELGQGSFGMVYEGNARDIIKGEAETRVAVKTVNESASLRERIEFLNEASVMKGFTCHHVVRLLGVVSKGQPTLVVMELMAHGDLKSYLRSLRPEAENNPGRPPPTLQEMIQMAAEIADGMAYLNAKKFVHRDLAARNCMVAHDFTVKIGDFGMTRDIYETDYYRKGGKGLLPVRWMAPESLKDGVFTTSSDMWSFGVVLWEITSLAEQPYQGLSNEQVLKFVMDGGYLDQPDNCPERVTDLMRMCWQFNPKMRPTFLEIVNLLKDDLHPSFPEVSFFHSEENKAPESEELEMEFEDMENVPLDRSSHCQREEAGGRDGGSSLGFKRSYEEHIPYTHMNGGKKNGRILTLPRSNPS
Receptor-interacting serine/threonine-protein kinase 2, sequence (O43353 whole entry): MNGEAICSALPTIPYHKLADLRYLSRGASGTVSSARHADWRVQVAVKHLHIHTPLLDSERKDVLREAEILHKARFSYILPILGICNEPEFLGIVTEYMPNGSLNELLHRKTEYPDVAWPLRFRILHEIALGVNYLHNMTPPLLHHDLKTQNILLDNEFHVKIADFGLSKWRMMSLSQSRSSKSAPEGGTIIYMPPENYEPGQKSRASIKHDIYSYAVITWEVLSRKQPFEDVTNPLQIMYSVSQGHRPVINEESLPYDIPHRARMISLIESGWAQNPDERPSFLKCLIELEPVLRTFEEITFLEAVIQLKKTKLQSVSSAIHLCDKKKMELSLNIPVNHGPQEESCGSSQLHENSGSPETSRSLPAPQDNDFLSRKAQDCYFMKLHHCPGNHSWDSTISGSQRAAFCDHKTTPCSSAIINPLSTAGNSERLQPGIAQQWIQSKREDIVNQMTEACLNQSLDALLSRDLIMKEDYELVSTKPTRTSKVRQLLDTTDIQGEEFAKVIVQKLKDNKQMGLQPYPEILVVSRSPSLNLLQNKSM
Ephrin type-A receptor 2 (Homo sapiens), sequence (P29317 whole entry): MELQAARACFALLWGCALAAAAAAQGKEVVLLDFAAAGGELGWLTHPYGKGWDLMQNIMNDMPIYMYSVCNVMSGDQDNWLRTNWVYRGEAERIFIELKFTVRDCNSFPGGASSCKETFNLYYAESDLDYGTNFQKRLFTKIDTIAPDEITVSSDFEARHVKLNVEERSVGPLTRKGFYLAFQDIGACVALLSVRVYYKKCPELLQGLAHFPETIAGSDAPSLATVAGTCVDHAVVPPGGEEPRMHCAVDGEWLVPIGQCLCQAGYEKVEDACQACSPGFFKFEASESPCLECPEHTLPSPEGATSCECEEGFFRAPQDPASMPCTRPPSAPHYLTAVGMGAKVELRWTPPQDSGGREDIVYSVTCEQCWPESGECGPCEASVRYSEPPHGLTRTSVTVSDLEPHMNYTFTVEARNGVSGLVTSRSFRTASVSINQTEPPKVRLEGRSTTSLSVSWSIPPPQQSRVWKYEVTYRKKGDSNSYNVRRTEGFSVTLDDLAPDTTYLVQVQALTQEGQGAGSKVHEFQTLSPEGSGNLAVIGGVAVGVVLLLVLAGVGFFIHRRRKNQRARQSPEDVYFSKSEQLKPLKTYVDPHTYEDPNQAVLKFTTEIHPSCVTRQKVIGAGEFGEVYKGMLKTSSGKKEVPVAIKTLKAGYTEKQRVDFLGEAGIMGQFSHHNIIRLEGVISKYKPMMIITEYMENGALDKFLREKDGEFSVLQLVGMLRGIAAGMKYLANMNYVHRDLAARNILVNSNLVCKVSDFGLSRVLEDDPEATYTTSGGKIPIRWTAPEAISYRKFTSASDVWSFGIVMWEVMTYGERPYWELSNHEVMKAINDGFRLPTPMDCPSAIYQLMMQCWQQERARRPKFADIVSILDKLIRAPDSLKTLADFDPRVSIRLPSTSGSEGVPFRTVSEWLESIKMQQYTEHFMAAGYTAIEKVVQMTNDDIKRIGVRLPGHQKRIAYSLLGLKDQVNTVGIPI

SMILES: CNC(=O)Nc1ccc(-c2nc(N3CC4CCC(C3)O4)c3cnn(C4CCC5(CC4)OCCO5)c3n2)cc1
% of control [2]: 71%

SMILES: COCC(=O)NC/C=C/c1ccc2ncnc(Nc3ccc(Oc4ccc(C)nc4)c(C)c3)c2c1 [CP-724714]
% of control [3]: 84%

SMILES: O=C(NOC[C@H](O)CO)c1ccc(F)c(F)c1Nc1ccc(I)cc1F
% of control [5]: 100%

More lines, now with the values ahead:

dTM [1]: -0.4 K
SMILES: CN(C(=O)c1cnn2cccnc12)c1cc2c(cc1N1CCOCC1)C(=O)N(C[C@@H](F)C(C)(C)O)C2

% of inhibition [4]: -6%
SMILES: Cc1ccc(-c2ccc3c(ccc4sc5c(c43)NC[C@@H](C)NC5=O)n2)cn1

% of inhibition (Insulin receptor; at 0.01 µM): -44.7% | % of inhibition (Insulin receptor; at 0.04 µM): 10.7% | % of inhibition (Insulin receptor; at 0.2 µM): -15.5% | % of inhibition (Insulin receptor; at 1 µM): -21.5% | % of inhibition (Insulin receptor; at 5 µM): -37.4%
SMILES: CC[C@@H]1[C@H](F)C(=O)N[C@@H]1COc1nccc2cc(C(N)=O)c(OC)cc12 [ZIMLOVISERTIB]
